Assays:
Format in all cases: cell-based
[1] = tested on: HCC827-YVMA cells (human ERBB2 exon20 insertion mutant A775_G776ins YVMA); assay: Cell growth inhibition (CellTiter-Glo, 3 days) in HCC827-YVMA; conditions: 72 h, 3 days after administration
From the text: (§1) 1. Preparation of HCC827-SVD, HCC827-ASV and HCC827-YVMA Cell Lines
(§2) HCC827-ASV and HCC827-YVMA cell lines were generated in the similar approach as HCC827-SVD except that HCC827 cells (ATCC) were first transduced with lentiviral particles expressing codon-optimized human EGFR exon 20 insertion mutant A769_D770insASV and human ERBB2 exon20 insertion mutant A775_G776ins YVMA, respectively.
(§3) 2. Cell Growth Inhibition for HCC827, HCC827-SVD, HCC827-ASV, HCC827-YVMA and A431.
(§4) HCC827(ATCC), HCC827-SVD, HCC827-ASV, HCC827-YVMA were seeded in 96-well plates at 5000 cells/well in 90 μl of RPMI growth medium containing 10% FBS and 1% Penicillin Streptomycin. A431 (ATCC) cells were seed in 96-well plates at 5000 cells/well in 90 μl of DMEM growth medium containing 10% FBS and 1% Penicillin Streptomycin. Cells were incubated at 3700 overnight. The following day, the test compound was administered to the cells by using 1 Ox compound stock solution prepared in growth medium at various concentrations. After administration of the compound, cells were then incubated at 3700 for 3 days. Before CeIlTiter-Glo assay, the plates were equilibrated at room temperature for approximately 10 minutes. 100 ul of CelTiter-Glo® Reagent (Promega) was added to each well. The plates were then incubated at room temperature for 10 minutes and luminescence was recorded by EnSpire plate reader (PerkinElmer).

HCC827 cells = assay: Cell growth inhibition (CellTiter-Glo, 3 days) in HCC827; conditions: Homo sapiens, 72 h, 3 days after administration
Procedure: as §3, §4

[2] = tested on: HCC827-SVD cells (human EGFR exon 20 insertion mutant D770_N771 insSVD); assay: Cell growth inhibition (CellTiter-Glo, 3 days) in HCC827-SVD; conditions: 72 h, 3 days after administration
Procedure: as §1
HCC827-SVD cell line were generated by first transducing HCC827 cells (ATCC) with lentiviral particles expressing codon-optimized human EGFR exon 20 insertion mutant D770_N771 insSVD, and then selecting under 5 μg/ml purimycin treatment for a week.
The resulting cells were further transduced with lentiviral particles carrying EGFR sgRNA and CAS9 to knockout the endogenous alleles of EGFR, and then selected under 500 μg/ml hygromycin B treatment for two weeks. Single clone was subsequently generated by limiting dilution approach. Endogenous EGFR knockout was confirmed by Sanger sequencing of cell genomic DNA and expression of exogenous mutant EGFR was verified by Western blot analysis.
as §3, §4

[3] = tested on: HCC827-ASV cells (human EGFR exon 20 insertion mutant A769_D770insASV); assay: Cell growth inhibition (CellTiter-Glo, 3 days) in HCC827-ASV; conditions: 72 h, 3 days after administration
From the text: as §1, §2, §3, §4

A431 cells = assay: Cell growth inhibition (CellTiter-Glo, 3 days) in A431; conditions: Homo sapiens, A-431, 72 h, 3 days after administration
Procedure: as §3, §4

SMILES | GI50 [1] [nM] | GI50 (HCC827 cells) [nM] | GI50 [2] [nM] | GI50 [3] [nM] | GI50 (A431 cells) [nM]
C=CC(=O)N1CCC(Nc2cc3c(Nc4ccc(Oc5nc(-c6cnc(C7CC7)nc6)cs5)cc4F)ncnc3cc2OC)CC1 [Compound 51, 1-(4-((4-((4-((4-(2-cyclopropylpyrimidin-5-yl)thiazol-2-yl)oxy)-2-fluorophenyl)amino)-7-methoxyquinazolin-6-yl)amino)piperidin-1-yl)prop-2-en-1-one] | 30 to 60 | 30 to 60 | 30 to 60 | 30 to 60 | 100 to 300
C=CC(=O)N1CCC(Nc2cc3c(Nc4ccc(Oc5ccn(-c6cc(F)c(C)cn6)n5)cc4F)ncnc3cc2OC)CC1 [Compound 15, 1-(4-((4-((2-fluoro-4-((1-(4-fluoro-5-methylpyridin-2-yl)-1H-pyrazol-3-yl)oxy)phenyl)amino)-7-methoxyquinazolin-6-yl)amino)piperidin-1-yl)prop-2-en-1-one] | 60 to 100 | 100 to 300 | 100 to 300 | 100 to 300 | 100 to 300
C=CC(=O)N1CCC(Nc2cc3c(Nc4ccc(Oc5ccnc(N6CCN(C)CC6)c5)cc4F)ncnc3cc2OC)CC1 [Example 113, 1-(4-((4-((2-fluoro-4-((2-(4-methylpiperazin-1-yl)pyridin-4-yl)oxy)phenyl)amino)-7-methoxyquinazolin-6-yl)amino)piperidin-1-yl)prop-2-en-1-one] | < 30 | 30 to 60 | < 30 | < 30 | 600 to 1000
C=CC(=O)N1CCC(Nc2cc3c(Nc4ccc(Oc5ccnc(N6CCOC(C)(C)C6)c5)cc4F)ncnc3cc2OC)CC1 [Example 138, 1-(4-((4-((4-((2-(2,2-dimethylmorpholino)pyridin-4-yl)oxy)-2-fluorophenyl)amino)-7-methoxyquinazolin-6-yl)amino)piperidin-1-yl)prop-2-en-1-one] | < 30 | 100 to 300 | < 30 | < 30 | ≥ 1000
C=CC(=O)N1CCC(Nc2cc3c(Nc4ccc(Oc5ccnc(N6CC(OC(C)C)C6)c5)cc4F)ncnc3cc2OC)CC1 [Example 148, 1-(4-((4-((2-fluoro-4-((2-(3-isopropoxyazetidin-1-yl)pyridin-4-yl)oxy)phenyl)amino)-7-methoxyquinazolin-6-yl)amino)piperidin-1-yl)prop-2-en-1-one] | 30 to 60 | 100 to 300 | 30 to 60 | 30 to 60 | 300 to 600
C=CC(=O)N1CCC(Nc2cc3c(Nc4ccc(OCc5ccc(N6CCOCC6)cn5)cc4F)ncnc3cc2OC)CC1 [Example 107, 1-(4-((4-((2-fluoro-4-((5-morpholinopyridin-2-yl)methoxy)phenyl)amino)-7-methoxyquinazolin-6-yl)amino)piperidin-1-yl)prop-2-en-1-one] | 300 to 600 | 100 to 300 | 600 to 1000 | 300 to 600 | 300 to 600
C=CC(=O)N1CCC(Nc2cc3c(Nc4ccc(Oc5nc(-c6ccnn6C)cs5)cc4F)ncnc3cc2OC)CC1 [Example 26, 1-(4-((4-((2-fluoro-4-((4-(1-methyl-1H-pyrazol-5-yl)thiazol-2-yl)oxy)phenyl)amino)-7-methoxyquinazolin-6-yl)amino)piperidin-1-yl)prop-2-en-1-one] | 30 to 60 | 60 to 100 | 30 to 60 | 30 to 60 | 100 to 300
C=CC(=O)N1CCC(Nc2cc3c(Nc4ccc(Oc5ccn(-c6cc(OC)ncn6)n5)cc4F)ncnc3cc2OC)CC1 [Example 30, 1-(4-((4-((2-fluoro-4-((1-(6-methoxypyrimidin-4-yl)-1H-pyrazol-3-yl)oxy)phenyl)amino)-7-methoxyquinazolin-6-yl)amino)piperidin-1-yl)prop-2-en-1-one] | < 30 | 100 to 300 | 30 to 60 | < 30 | 300 to 600
C=CC(=O)N1CCC(Nc2cc3c(Nc4ccc(Oc5ccn(-c6cnc(OC)nc6)n5)cc4F)ncnc3cc2OC)CC1 [Compound 1, 1-(4-((4-((2-fluoro-4-((1-(2-methoxypyrimidin-5-yl)-1H-pyrazol-3-yl)oxy)phenyl)amino)-7-methoxyquinazolin-6-yl)amino)piperidin-1-yl)prop-2-en-1-one] | 60 to 100 | 300 to 600 | 60 to 100 | 30 to 60 | 300 to 600
C=CC(=O)N1CCC(Nc2cc3c(Nc4ccc(Oc5ccn(-c6cnc(OC)c(F)c6)n5)cc4F)ncnc3cc2OC)CC1 [Example 90, 1-(4-((4-((2-fluoro-4-((1-(5-fluoro-6-methoxypyridin-3-yl)-1H-pyrazol-3-yl)oxy)phenyl)amino)-7-methoxyquinazolin-6-yl)amino)piperidin-1-yl)prop-2-en-1-one] | 60 to 100 | 60 to 100 | 60 to 100 | 100 to 300 | 100 to 300

Continued, values first:

GI50 [1] [nM] | GI50 (HCC827 cells) [nM] | GI50 [2] [nM] | GI50 [3] [nM] | GI50 (A431 cells) [nM] | SMILES
100 to 300 | 600 to 1000 | 100 to 300 | 100 to 300 | ≥ 1000 | C=CC(=O)N1CCC(Nc2cc3c(Nc4ccc(Oc5ccnc(N6CC[C@H](O)C6)c5)cc4F)ncnc3cc2OC)CC1 [Example 174, (S)-1-(4-((4-((2-fluoro-4-((2-(3-hydroxypyrrolidin-1-yl)pyridin-4-yl)oxy)phenyl)amino)-7-methoxyquinazolin-6-yl)amino)piperidin-1-yl)prop-2-en-1-one]
600 to 1000 | ≥ 1000 | 300 to 600 | 600 to 1000 | ≥ 1000 | C=CC(=O)N1CCC(Nc2cc3c(Nc4ccc(Oc5ccnc(N6CCN[C@H](C)C6)c5)cc4F)ncnc3cc2OC)CC1 [Example 224, (R)-1-(4-((4-((2-fluoro-4-((2-(3-methylpiperazin-1-yl)pyridin-4-yl)oxy)phenyl)amino)-7-methoxyquinazolin-6-yl)amino)piperidin-1-yl)prop-2-en-1-one]
30 to 60 | ≥ 1000 | 60 to 100 | < 30 | ≥ 1000 | C=CC(=O)N1CCC(Nc2cc3c(Nc4ccc(Oc5ccnc(N6CCN(C)[C@@H](C)C6)c5)cc4F)ncnc3cc2OC)CC1 [Example 179, (S)-1-(4-((4-((4-((2-(3,4-dimethylpiperazin-1-yl)pyridin-4-yl)oxy)-2-fluorophenyl)amino)-7-methoxyquinazolin-6-yl)amino)piperidin-1-yl)prop-2-en-1-one]
< 30 | 60 to 100 | < 30 | < 30 | 600 to 1000 | C=CC(=O)N1CCC(Nc2cc3c(Nc4ccc(Oc5ccnc(N6CC[C@@H](C#N)C6)c5)cc4F)ncnc3cc2OC)CC1 [Example 258, (R)-1-(4-(4-((6-((1-acryloylpiperidin-4-yl)amino)-7-methoxyquinazolin-4-yl)amino)-3-fluorophenoxy)pyridin-2-yl)pyrrolidine-3-carbonitrile]
100 to 300 | ≥ 1000 | 100 to 300 | 100 to 300 | ≥ 1000 | C=CC(=O)N1CCC(Nc2cc3c(Nc4ccc(Oc5ccnc(N6CCC(CO)(CO)C6)c5)cc4F)ncnc3cc2OC)CC1 [Example 155, 1-(4-((4-((4-((2-(3,3-bis(hydroxymethyl)pyrrolidin-1-yl)pyridin-4-yl)oxy)-2-fluorophenyl)amino)-7-methoxyquinazolin-6-yl)amino)piperidin-1-yl)prop-2-en-1-one]
≥ 1000 | ≥ 1000 | ≥ 1000 | ≥ 1000 | ≥ 1000 | C=CC(=O)N1CCC(Nc2cc3c(Nc4ccc(Oc5ccnc(C(=O)O)c5)cc4F)ncnc3cc2OC)CC1 [Example 212, 4-(4-((6-((1-acryloylpiperidin-4-yl)amino)-7-methoxyquinazolin-4-yl)amino)-3-fluorophenoxy) picolinic acid]
300 to 600 | ≥ 1000 | 100 to 300 | 100 to 300 | ≥ 1000 | C=CC(=O)N1CCC(Nc2cc3c(Nc4ccc(Oc5ccnc(N6CCN(C(C)C)CC6)c5)cc4F)ncnc3cc2OC)CC1 [Example 187, 1-(4-((4-((2-fluoro-4-((2-(4-isopropylpiperazin-1-yl)pyridin-4-yl)oxy)phenyl)amino)-7-methoxyquinazolin-6-yl)amino)piperidin-1-yl)prop-2-en-1-one]

Reference: patent publication US20240398805A1, “QUINAZOLINE DERIVED COMPOUNDS AS EGFR INHIBITORS AND THEIR USES THEREOF” (ACCUTAR BIOTECHNOLOGY INC., priority 2021, published 2024)
